Data taken from paper PMC12476894, “Identification of α‑Azacyclic Acetamide-Based Inhibitors of P. falciparum Na^+ Pump (PfATP4) with Fast-Killing Asexual Blood-Stage Antimalarial Activity by Phenotypic Screening” (ACS Infectious Diseases, 2025).
Values after ≈ are worked out from the molar mass of the structure shown. Like-named read-outs stand apart in the source and are kept apart here.

Assays:
[1] = system: Dd2 PfATP4^P412L mutant clones; test: 72 h SYBR Green growth inhibition, 2-selected Dd2 clones with PfATP4 P412L (Phillips Lab); type: cell-based, Plasmodium falciparum; details: for EC50: Plasmodium falciparum
Protocol: (§1) To confirm the MOA for the α-azacyclic acetamides against P. falciparum and to obtain potential information about whether or not they bind PfATP4 at an overlapping site with that of KAE609, we undertook resistance selections using PfDd2 parasites using the published cycling drug selection method. , α-Azacyclic acetamides 2 and 3 were chosen as representative examples of the pyrrole- and indole-based series, respectively. […] Additional cycles were performed at 20 × EC50, until resistant parasites were detected based on a fold change in EC50 compared to the parental clonal Dd2 line (Table S3). Resistant parasites were detected in the 2-selections in all 4 flasks after 4 pulses and for 3-selections in 3 flasks after 5 pulses. Clonal lines were generated from each flask, and one clone per flask was selected for WGS and EC50 determination (Tables S4 and S5). WGS analysis identified two single point mutations in PfATP4 that were not present in the original clonal Dd2 parasite line (Tables and S4). P412L was found in three of four flasks containing 2-selected resistance clones, and F917L was identified in all three flasks containing 3-selected clones and in the fourth flask containing 2-selected clones (Table S4). PfATP4 mutations identified by the WGS analysis in parasite lines were verified by PCR of the pfatp4 gene, followed by Sanger sequencing (Figures S5, S6 and Table S6). An additional protein coding gene (ribosomal protein S8e) was mutated in the 2-selections. However, this mutation was identified in only one of four sequenced clones and is therefore unlikely to be related to resistance to 2 (Figure S7). All three resistant clones derived from the 3-selections harbored an identical mutation in a gene (pfcpu) encoding a conserved protein of unknown function, which was absent in the parental line (Figure S8).
(§2) ABS P. falciparum 3D7, Dd2 or PfNF54^luc parasites (BEI resources) were cultured in RPMI 1640 medium (Millipore Sigma), supplemented with 25 mM HEPES, 0.5% Albumax-I (Thermo Scientific), 23 mM sodium bicarbonate, 92 μM hypoxanthine, and 10 μg/mL gentamicin sulfate at 37 °C, 5% CO2, using deidentified O^+ red blood cells (BioIVT) as previously described. − Growth inhibition assays were conducted in 96 well plate format using the SYBR Green or luciferase reporter assay depending on the strain with modifications as described , (see Supporting Information for a detailed description). Details for the luciferase reporter assay are described below under the BRRoK assay section.
(§3) EC50 and CC50 values were determined by nonlinear regression performed in GraphPad Prism Version 10. Unless otherwise specified, data were fitted to the log(inhibitor) vs response–variable slope with four parameters equation. […] For mutant cell lines and compound combinations where bottom plateau of zero growth was not reached, the bottom of the curve was defined at 0% based on background values obtained for parental Dd2 from the same study.
(§4) Resistant Dd2 parasites were selected using a high-pressure intermittent selection protocol using a previously described method. Selections were set up using 4 flasks per compound starting with approximately 3 × 10^9 parasites per flask (80 mL per flask, 4% hematocrit, 3% parasitemia at the beginning of each pulse, mostly ring-stage parasites via previous sorbitol synchronization. Pulse 1 and 2 (48 h) were conducted at 10xEC50, and subsequent pulses were conducted at 20xEC50. Parasites cleared within 48 h under these conditions. 3-Selections used a total of 4 pulses, while 2-selections required 5 pulses before resistant parasites emerged (Table S3). Culture media was replenished daily for a week after each pulse, then every 2 days with weekly replenishment of blood. Cultures were monitored by microscopy until recrudescence. Clonal parasites were obtained from each flask by limiting dilution and maintained in drug free RPMI-1640 media prior to being analyzed for EC50 shifts. […]

[2] = system: Dd2 PfATP4^F917L mutant clones; test: 72 h SYBR Green growth inhibition, 2- or 3-selected Dd2 clones with PfATP4 F917L (Phillips Lab); type: cell-based, Plasmodium falciparum; details: for EC50: Plasmodium falciparum
Protocol: as §1, §2, §3, §4

[3] = system: isolated Pf3D7 trophozoites, [Na+]cyt; test: Measurement of P. falciparum cytosolic Na+ concentration (SBFI); type: cell-based, Plasmodium falciparum; details: 1 μM
Protocol: Measurements were carried out in 96 well plates (excitation wavelengths: 340 and 380 nm; emission wavelength: 515 nm), as described previously. Fluorescence ratio values (340 nm/380 nm) were converted to [Na^+]cyt using a calibration procedure in which parasites were suspended in solutions of varying [Na^+] containing ionophores.

[4] = system: P. falciparum Dd2 (PfDd2) parasites; test: 72 h SYBR Green growth inhibition, ABS P. falciparum Dd2 (Phillips Lab); type: cell-based, Plasmodium falciparum; details: Plasmodium falciparum
[5] = physchem; details: kinetic from dmso stock
[6] = system: P. falciparum NF54^luc parasites; test: 72 h SYBR Green growth inhibition, PfNF54^luc; type: cell-based; details: Plasmodium falciparum, 72 h SYBR Green assay, read-out: PfNF54^luc EC50
[7] = system: PfDd2 parasites; test: Resistance selection by drug pulses, time to recrudescence; type: cell-based, Plasmodium falciparum
Protocol: as §1
Resistant Dd2 parasites were selected using a high-pressure intermittent selection protocol using a previously described method. Selections were set up using 4 flasks per compound starting with approximately 3 × 10^9 parasites per flask (80 mL per flask, 4% hematocrit, 3% parasitemia at the beginning of each pulse, mostly ring-stage parasites via previous sorbitol synchronization. Pulse 1 and 2 (48 h) were conducted at 10xEC50, and subsequent pulses were conducted at 20xEC50. Parasites cleared within 48 h under these conditions. 3-Selections used a total of 4 pulses, while 2-selections required 5 pulses before resistant parasites emerged (Table S3). Culture media was replenished daily for a week after each pulse, then every 2 days with weekly replenishment of blood. Cultures were monitored by microscopy until recrudescence. Clonal parasites were obtained from each flask by limiting dilution and maintained in drug free RPMI-1640 media prior to being analyzed for EC50 shifts. Established clonal lines were aliquoted and stored at −80 °C after suspension in Glycerolyte 57 solution (Baxter Cat no 4A7831).

[8] = in vitro; type: in vitro ADME; details: human liver microsomes, 1 µM compound, 0.4 mg/mL protein
[9] = system: Dd2-B2 (PfATP4^WT); test: Drug susceptibility assay for cross-resistance profiling (Fidock Lab), parental line; type: cell-based, Plasmodium falciparum; details: Plasmodium falciparum, DD2, 72 h, read-out: EC50, Dd2-B2
[10] = system: P. falciparum NF54^luc parasites; test: Luciferase reporter (LR) / BRRoK assay, PfNF54^luc; type: cell-based; details: Plasmodium falciparum, NF54, Hec50, 72 h
[11] = DD2, read-out: EC50, 2-resistant Flask 2 Clone F9
[12] = DD2, read-out: EC50, 2-resistant Flask 3 Clone F5
[13] = DD2, read-out: EC50, 2-resistant Flask 4 Clone E10
[14] = DD2, read-out: EC50, 2-selected flask #3 clone F5
[15] = DD2, read-out: EC50, 2-resistant Flask 1 Clone B6
[16] = DD2, read-out: EC50, 3-resistant Flask 2 Clone D10
[17] = DD2, read-out: EC50, 3-resistant Flask 3 Clone D8
[18] = DD2, read-out: EC50, 3-resistant Flask 4 Clone B3
[19] = DD2, read-out: EC50, 3-selected flask #3 clone D8
[20] = DD2, 72 h, read-out: PfDd2 EC50

| Compound | EC50 [1, 11] | EC50 [1, 12] | EC50 [1, 13] | EC50 [1, 14] | Fold EC50 change compared to WT Dd2, 2-selected flask #3 clone F5 [1] | EC50 [2, 15] | EC50 [2, 16] | EC50 [2, 17] | EC50 [2, 18] | EC50 [2, 19] | Fold EC50 change compared to WT Dd2, 3-selected flask #3 clone D8 [2] | increase in [Na+]cyt (in words) [3] | EC50 [4, 20] | solubility ([5]; pH 2, simulated gastric fluid) | solubility ([5]; pH 6.5, aqueous buffer) | EC50 [6] | Time to Recrudescence ([7]; Pulse 1, 10×EC50, Flasks #1-4) | Time to Recrudescence ([7]; Pulse 2, 10×EC50, Flasks #1-4) | Time to Recrudescence ([7]; Pulse 3, 20×EC50, Flasks #1-4) | microsomal CLint [8] | other results |
| --- | --- | --- | --- | --- | --- | --- | --- | --- | --- | --- | --- | --- | --- | --- | --- | --- | --- | --- | --- | --- | --- |
| Cc1ccnc(NC(=O)Cn2cccc2-c2nc(-c3ccccc3)cs2)c1 [compound 2, N-(4-methylpyridin-2-yl)-2-(2-(4-phenylthiazol-2-yl)-1H-pyrrol-1-yl)acetamide] | > 10 µM | > 10 µM | > 10 µM | 29 ± 6.1 µM | 35 fold | 9.6 ± 2 µM | > 10 µM | > 10 µM | > 10 µM | 14 ± 0.78 µM | 17 fold | reduced response | 0.83 ± 0.048 µM | 99 µM (≈ 37.1 µg/mL) | 3.2 µM (≈ 1.2 µg/mL) | 0.72 ± 0.019 µM | 8 days | 6 days | 7 days | > 866 µL/min/mg | EC50 ([4]; DD2, read-out: EC50, Dd2 Parent (clone B8)): 0.78 µM; Time to Recrudescence ([7]; Pulse 4, 20×EC50, Flasks #1-4): 3 days; Time to Recrudescence ([7]; Pulse 5, 20×EC50, Flasks #1-4, after pulse): 2 days; EC50 [9]: 0.38 ± 0.031 µM; EC50 [10]: 0.47 ± 0.051 µM |
| Cc1nn(CCNC(=O)Cn2c(C)c(C#N)c3ccccc32)c(C)c1Cl [compound 3, N-(2-(4-chloro-3,5-dimethyl-1H-pyrazol-1-yl)ethyl)-2-(3-cyano-2-methyl-1H-indol-1-yl)acetamide] | > 10 µM | > 10 µM | > 10 µM | 11 ± 1.8 µM | 10 fold | > 10 µM | > 10 µM | > 10 µM | > 10 µM | 28 ± 1.6 µM | 25 fold | reduced response | 1.1 ± 0.072 µM | 25 µM (≈ 9.25 µg/mL) | 25 µM (≈ 9.25 µg/mL) | 0.94 ± 0.0027 µM | 5 days | 4 days | 4 days | > 866 µL/min/mg | EC50 ([4]; DD2, read-out: EC50, Dd2 Parent (clone G9)): 0.99 µM; Time to Recrudescence ([7]; Pulse 4, 20×EC50, Flask #1): 6 days; Time to Recrudescence ([7]; Pulse 4, 20×EC50, Flasks 2 - 4): 2 days; EC50 [9]: 0.54 ± 0.054 µM; EC50 [10]: 0.72 ± 0.0031 µM |
